Measurements published in ChEMBL document CHEMBL1201862, “PubChem BioAssay data set” (2004).
The source made the active and inactive calls.

Columns and labels:
[1] = target: Dual specificity protein phosphatase 3 (Homo sapiens, UniProt P51452); assay: SAR VHR1 Fluorescent Assay for In Vitro dose response studies Set 3. [Related pubchem assays (depositor defined):AID1654, AID1661, AID1878]; format: functional
[2] = target: 5-hydroxytryptamine receptor 5A (Homo sapiens, UniProt P47898); assay: Counterscreen for agonists of OPRM1-OPRD1 heterodimerization: luminescence-based cell-based high throughput dose response assay to identify agonists of 5-hydroxytryptamine (serotonin) 5A receptor (HTR5A). [Related pubchem assays (depositor defined):AID504326, AID504355, AID504692, AID504904, AID504905]; format: functional
Sequence of 5-hydroxytryptamine receptor 5A (P47898 whole entry): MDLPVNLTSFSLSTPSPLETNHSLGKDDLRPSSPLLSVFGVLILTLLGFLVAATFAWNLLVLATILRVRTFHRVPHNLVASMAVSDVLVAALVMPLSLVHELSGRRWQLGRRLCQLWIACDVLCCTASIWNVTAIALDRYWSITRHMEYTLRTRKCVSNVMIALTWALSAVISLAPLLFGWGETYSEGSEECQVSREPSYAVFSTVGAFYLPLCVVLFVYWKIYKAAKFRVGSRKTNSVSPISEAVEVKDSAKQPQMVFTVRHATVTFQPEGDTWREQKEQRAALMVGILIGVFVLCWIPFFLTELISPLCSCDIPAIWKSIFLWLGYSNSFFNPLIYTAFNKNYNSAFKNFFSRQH

Mu-type opioid receptor = Mu-type opioid receptor (Homo sapiens, UniProt P35372); assay: (§1) Counterscreen for agonists of heterodimerization of the mu 1 (OPRM1) and delta 1 (OPRD1) opioid receptors: Luminescence-based cell-based high throughput dose response assay to identify agonists of OPRM1 homodimerization.; format: functional
Sequence of Mu-type opioid receptor (P35372 whole entry): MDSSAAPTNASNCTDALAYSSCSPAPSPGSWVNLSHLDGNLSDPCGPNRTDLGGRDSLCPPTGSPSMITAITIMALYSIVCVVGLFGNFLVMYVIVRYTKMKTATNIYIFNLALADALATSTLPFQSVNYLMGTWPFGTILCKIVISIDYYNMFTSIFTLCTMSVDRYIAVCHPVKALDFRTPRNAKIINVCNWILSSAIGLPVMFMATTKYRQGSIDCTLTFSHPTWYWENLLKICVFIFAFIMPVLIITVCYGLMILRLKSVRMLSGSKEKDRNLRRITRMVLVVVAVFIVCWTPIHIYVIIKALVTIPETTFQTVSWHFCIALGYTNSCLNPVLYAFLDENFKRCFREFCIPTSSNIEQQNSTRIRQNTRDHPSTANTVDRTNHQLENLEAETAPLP

[3] = target: T1, Short transient receptor potential channel 4 (Mus musculus, UniProt Q9QUQ5); assay: calcium entry via TRPC4 opening agents – cell-based, HEK293 TRPC4/mu-opioid, Fluo-4 calcium, dose response (AID 434937); format: functional
T1 sequence (Q9QUQ5 whole entry): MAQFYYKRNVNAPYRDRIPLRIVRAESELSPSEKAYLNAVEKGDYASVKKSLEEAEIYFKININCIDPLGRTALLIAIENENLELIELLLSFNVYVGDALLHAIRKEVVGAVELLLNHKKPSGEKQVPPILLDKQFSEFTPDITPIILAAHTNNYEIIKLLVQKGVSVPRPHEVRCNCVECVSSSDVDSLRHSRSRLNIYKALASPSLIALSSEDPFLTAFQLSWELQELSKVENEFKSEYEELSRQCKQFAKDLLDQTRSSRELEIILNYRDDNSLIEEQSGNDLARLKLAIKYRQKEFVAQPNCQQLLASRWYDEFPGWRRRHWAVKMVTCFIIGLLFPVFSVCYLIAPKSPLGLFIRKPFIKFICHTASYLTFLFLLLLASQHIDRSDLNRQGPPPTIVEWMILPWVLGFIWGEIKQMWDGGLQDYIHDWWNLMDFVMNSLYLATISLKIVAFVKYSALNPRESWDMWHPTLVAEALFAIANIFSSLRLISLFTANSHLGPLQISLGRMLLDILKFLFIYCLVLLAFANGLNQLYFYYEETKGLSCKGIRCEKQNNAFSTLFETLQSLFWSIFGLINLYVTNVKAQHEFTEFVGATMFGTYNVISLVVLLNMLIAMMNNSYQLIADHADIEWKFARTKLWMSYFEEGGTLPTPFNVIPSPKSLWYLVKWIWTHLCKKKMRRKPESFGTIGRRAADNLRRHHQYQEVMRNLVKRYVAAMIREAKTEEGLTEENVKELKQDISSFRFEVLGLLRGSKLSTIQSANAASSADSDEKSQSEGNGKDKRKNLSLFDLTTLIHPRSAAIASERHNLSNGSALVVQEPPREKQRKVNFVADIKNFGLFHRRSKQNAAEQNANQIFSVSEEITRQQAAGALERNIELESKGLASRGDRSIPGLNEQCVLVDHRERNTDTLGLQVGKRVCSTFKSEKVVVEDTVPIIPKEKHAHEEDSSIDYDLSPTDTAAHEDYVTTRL

[4] = target: Delta-type opioid receptor (Homo sapiens, UniProt P41143); assay: as §1, with “of OPRD1” for “of OPRM1”, “homodimerization. [Related pubchem assays (depositor defined):AID504326, AID504355, AID504692, AID504904, AID504905]” for “homodimerization.”; format: functional
Sequence of Delta-type opioid receptor (P41143 whole entry, the tested form may be a part): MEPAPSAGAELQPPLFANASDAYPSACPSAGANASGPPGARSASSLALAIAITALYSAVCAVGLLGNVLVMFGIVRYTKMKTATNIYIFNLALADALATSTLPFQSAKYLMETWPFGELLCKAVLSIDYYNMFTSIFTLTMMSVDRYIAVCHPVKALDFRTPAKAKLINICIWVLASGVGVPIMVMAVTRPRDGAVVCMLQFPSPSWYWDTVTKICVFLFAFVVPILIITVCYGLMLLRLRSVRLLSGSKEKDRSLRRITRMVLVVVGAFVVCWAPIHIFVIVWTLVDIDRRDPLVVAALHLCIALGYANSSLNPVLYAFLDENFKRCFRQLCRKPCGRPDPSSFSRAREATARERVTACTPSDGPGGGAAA

[5] = off-target signal loss in HeLa-CEM21 co-culture – HeLa F-luc CTL cells, cherry-picked, counter-screen for HIV-1 Env fusion inhibitor project, dose response (AID 652040); format: functional, cell-based;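 also: potency for signal decrease marking cytotoxic or nonspecific inhibition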
[6] = target: T1, Short transient receptor potential channel 4; assay: block of DAMGO-driven TRPC4 calcium entry – cell-based, HEK293 TRPC4/mu-opioid, Fluo-4 calcium, dose response (AID 434942); format: functional;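 also: potency of inhibitors blocking the TRPC4 calcium response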
[7] = target: Cyclin-dependent kinase 5/CDK5 activator 1 (Homo sapiens, UniProt Q00535); assay: blockade of human CDK5 activity – biochemical, cherry-picked samples, set 2, dose response (AID 504545)
Sequence of Cyclin-dependent kinase 5/CDK5 activator 1 (Q00535 whole entry, the tested form may be a part): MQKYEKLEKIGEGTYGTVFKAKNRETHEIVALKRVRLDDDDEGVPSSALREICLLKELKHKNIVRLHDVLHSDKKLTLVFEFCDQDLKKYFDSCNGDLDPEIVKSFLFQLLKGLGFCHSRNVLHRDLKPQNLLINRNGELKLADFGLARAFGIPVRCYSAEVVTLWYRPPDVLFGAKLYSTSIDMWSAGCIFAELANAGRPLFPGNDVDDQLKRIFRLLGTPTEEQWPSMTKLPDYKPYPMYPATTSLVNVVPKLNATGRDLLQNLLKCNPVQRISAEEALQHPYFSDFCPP
Sequence of Cyclin-dependent kinase 5/CDK5 activator 1 (Q15078 whole entry, further chain, the tested form may be a part): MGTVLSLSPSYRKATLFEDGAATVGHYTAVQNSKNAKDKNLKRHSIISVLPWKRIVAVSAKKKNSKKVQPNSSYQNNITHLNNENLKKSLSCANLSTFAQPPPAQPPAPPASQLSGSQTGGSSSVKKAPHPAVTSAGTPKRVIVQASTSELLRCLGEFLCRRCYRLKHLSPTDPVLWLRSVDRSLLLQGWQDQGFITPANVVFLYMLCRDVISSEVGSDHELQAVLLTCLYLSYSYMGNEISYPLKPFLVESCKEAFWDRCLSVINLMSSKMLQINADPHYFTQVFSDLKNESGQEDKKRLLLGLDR

[8] = blockers of HIV-1 ZM109 envelope-driven cell-cell fusion – HeLa effector, CEM target cells, luciferase, cherry-pick, dose response (AID 652058); format: functional, cell-based;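 also: luciferase signal from HIV-1 Env mediated cell-cell fusion of effector and target cells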
[9] = MIN6 cell viability loss – mouse insulinoma, cytotoxicity control, dose response (AID 2122); format: functional;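 also: confirmatory high-throughput counterscreen run to flag cytotoxic compounds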
[10] = HIV-1 AD8 envelope cell-cell fusion blockers – cherry-pick, dose response (AID 652062); format: functional, cell-based;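 also: luciferase signal from cell-cell fusion driven by HIV-1 clade B AD8 Env; potency is for inhibitors of fusion seen as a drop in luminescence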
[11] = blockers of HIV-1 envelope-mediated cell-cell fusion – cherry-pick, dose response (AID 652057); format: functional, cell-based
[12] = decrease of insulin promoter-GFP reporter – imaging, high-content screening, mouse beta cells (AID 1628); format: functional; conditions: MIN6
[13] = viability loss in CEM21 cells – cell-based, CellTiter-Glo luminescence, cherry-picked, cytotoxicity control for viral fusion inhibitor project, dose response (AID 652042); format: functional;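 also: potency for signal decrease meaning cytotoxicity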
[14] = target: UDP-galactopyranose mutase (Mycobacterium tuberculosis, UniProt P9WIQ1); assay: Inhibitors of Mycobacterium tuberculosis UDP-galactopyranose mutase (UGM) enzyme Measured in Biochemical System Using Plate Reader - 2105-02_Inhibitor_Dose_CherryPick_Activity. [Related pubchem assays (depositor defined):AID504439]
Sequence of UDP-galactopyranose mutase (P9WIQ1 whole entry): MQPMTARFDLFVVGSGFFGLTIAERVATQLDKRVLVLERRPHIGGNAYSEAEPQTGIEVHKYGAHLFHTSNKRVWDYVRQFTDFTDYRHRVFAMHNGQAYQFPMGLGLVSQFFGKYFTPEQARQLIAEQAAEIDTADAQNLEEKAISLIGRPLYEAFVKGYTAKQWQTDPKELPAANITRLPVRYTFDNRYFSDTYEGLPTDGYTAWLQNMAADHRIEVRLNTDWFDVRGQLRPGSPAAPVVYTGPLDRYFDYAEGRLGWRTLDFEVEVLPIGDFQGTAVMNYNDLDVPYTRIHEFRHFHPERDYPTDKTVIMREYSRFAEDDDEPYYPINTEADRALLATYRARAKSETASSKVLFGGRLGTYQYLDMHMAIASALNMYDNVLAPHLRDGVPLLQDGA

Sequence of Dual specificity protein phosphatase 3 (P51452 whole entry): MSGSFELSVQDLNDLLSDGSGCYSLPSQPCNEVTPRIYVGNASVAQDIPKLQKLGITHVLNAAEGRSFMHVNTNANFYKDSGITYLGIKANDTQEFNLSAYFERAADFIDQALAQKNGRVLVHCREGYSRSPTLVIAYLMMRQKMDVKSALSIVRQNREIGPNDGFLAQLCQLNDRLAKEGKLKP

Q: With `Cc1ccc2sc(-c3ccc(NC(=O)c4cc(-n5cnnc5)ccc4Cl)cc3)nc2c1` as the compound, how does the IC50 [1] read?
A: 11.4 µM (active)

Q: What does the source list for `CCOC(=O)C1(CCOc2ccccc2)CCN(Cc2cnc(C)s2)CC1`?
A: EC50 [2]: > 92.5 µM (inactive); EC50 (Mu-type opioid receptor): > 92.5 µM (inactive); EC50 [3]: 0.237 µM (active); EC50 [4]: > 92.5 µM (inactive)

Q: Which results are given for `CCCn1c(NC(=O)c2cccc(S(=O)(=O)N3CCCC3)c2)nc2ccccc21`?
A: AC50 [5]: 20.4 µM (active); EC50 [6]: 0.749 µM (active); AC50 [7]: 3.94 µM (active); AC50 [8]: 11.2 µM (active); IC50 [9]: 4.19 µM (active); AC50 [10]: 9.76 µM (active); AC50 [11]: 8.66 µM (active); IC50 [12]: 3.34 µM (active); AC50 [13]: 9.5 µM (active)

Q: Which AC50 [14] does the source give for `CCOC(=O)c1c(O)[n+]([O-])c2ccc(OC)cc2[n+]1[O-]` here?
A: 200 µM (active)
